The results in this text go back to ChEMBL document CHEMBL4673385, “Discovery of Potent Inhibitors of Streptococcus mutans Biofilm with Antivirulence Activity” (ACS Med Chem Lett, 2021).

The test system of data set [1] is Streptococcus mutans. Put plainly: Bactericidal activity against Streptococcus mutans UA159 assessed as reduction in bacterial growth at 100 uM after 24 hrs. It counts as functional, organism-based.
Data set [2] is described as follows: Solubility of compound in water. It is filed as physicochemical.
The subject of data set [3] is Streptococcus mutans. Put plainly: Antibiofilm activity against Streptococcus mutans UA159 assessed as inhibition of biofilm formation by serial dilution method. It counts as functional, organism-based.
Where [4] appears, read: Streptococcus mutans, UA159, read-out: IC50.

Molecules are shown by their SMILES. ≈ marks a conversion by molar mass, not a printed value. Calls of active or inactive are those of the source. No rule for the calls is given here.

Take `CC(C)(C)OC(=O)NCc1ccccc1NC(=O)c1cc2ccccc2s1`: the result in the data set on Streptococcus mutans [1] was inactive. The solubility in data set [2] (water, read-out: solubility) stood at 20 µg/mL (≈ 52.3 µM). For the same molecule, the concentration for half-maximal inhibition (IC50) with Streptococcus mutans [3] (setting [4]) stood at 43.4 µM.
For the molecule `COC(=O)c1cccc(NC(=O)c2ccc3ccccc3n2)c1`, the result in the data set with Streptococcus mutans [1] was inactive. Further, in data set [2] (water, read-out: solubility), the solubility amounted to 25 µg/mL (≈ 81.6 µM). Besides, in the data set on Streptococcus mutans [3] (setting [4]), the IC50 was 92.3 µM.
`O=C(Nc1ccccc1)c1cnc2ccccc2c1`: the outcome with Streptococcus mutans [1] was inactive. Besides, the solubility in data set [2] (water, read-out: solubility) amounted to 5 µg/mL (≈ 20.1 µM). Besides, in the data set with Streptococcus mutans [3] (setting [4]), the IC50 was above 300 µM.
With `NC(=O)c1ccccc1NC(=O)c1cc2ccccc2s1`, the outcome with Streptococcus mutans [1] was inactive. For the same molecule, the solubility in data set [2] (water, read-out: solubility) is below 5 µg/mL. Also, in the data set on Streptococcus mutans [3] (setting [4]), the IC50 was 45.6 µM.
Turning to `COC(=O)c1ccccc1NC(=O)c1ccc2ccccc2n1`, in the data set with Streptococcus mutans [1], the outcome was inactive. Besides, the solubility in data set [2] (water, read-out: solubility) was below 5 µg/mL. In addition, the IC50 in the data set on Streptococcus mutans [3] (setting [4]) came out at 89.5 µM.
With `CC(C)(C)OC(=O)NCc1ccccc1NC(=O)c1ccc2ccccc2n1`, in the data set with Streptococcus mutans [1], the result was inactive. The solubility in data set [2] (water, read-out: solubility) was below 5 µg/mL. Moreover, the concentration for half-maximal inhibition (IC50) in the data set with Streptococcus mutans [3] (setting [4]) was 67.5 µM.
With `COC(=O)c1ccccc1NC(=O)c1cc2cc([N+](=O)[O-])ccc2[nH]1`, the outcome in the data set with Streptococcus mutans [1] was inactive. Moreover, the solubility entry in data set [2] (buffer) is on record as “Insoluble”. In the data set on Streptococcus mutans [3], the IC50 entry is “Nd(Insoluble)”.
On the same counts, the results for `COC(=O)c1ccc(NC(=O)c2cc3cc([N+](=O)[O-])ccc3[nH]2)cc1` are “inactive”, “Insoluble” and “Nd(Insoluble)”.
Take `NC(=O)c1ccc(NC(=O)c2ccc(-c3ccccc3)cc2)cc1`: the result with Streptococcus mutans [1] was inactive. Moreover, in data set [2] (water, read-out: solubility), the solubility was below 5 µg/mL. For the same molecule, the IC50 in the data set with Streptococcus mutans [3] (setting [4]) was above 300 µM.
Taken in the same sequence, the figures for `NC(=O)c1ccc(NC(=O)c2ccc3ccccc3c2)cc1` were “inactive”, below 5 µg/mL and 110 µM.
Turning to `O=C(Nc1ccccc1)c1cc2cc([N+](=O)[O-])ccc2o1`, in the data set with Streptococcus mutans [1], the outcome was inactive. For the same molecule, in data set [2] (water, read-out: solubility), the solubility came to 25 µg/mL (≈ 88.6 µM). For the same molecule, the IC50 in the data set with Streptococcus mutans [3] (setting [4]) is above 300 µM.
Consider `O=C(Nc1ccccc1)c1cc2cc([N+](=O)[O-])ccc2[nH]1`, for which, in the data set with Streptococcus mutans [1], the result was inactive. The solubility entry in data set [2] (buffer) is “Insoluble”. Besides, in the data set with Streptococcus mutans [3], the IC50 entry is listed as “Nd(Insoluble)”.
For `COc1ccc2[nH]c(C(=O)Nc3cccc(C(N)=O)c3)cc2c1`, the result in the data set on Streptococcus mutans [1] was inactive. The solubility in data set [2] (water, read-out: solubility) is 5 µg/mL (≈ 16.2 µM). For the same molecule, the IC50 in the data set with Streptococcus mutans [3] (setting [4]) is 56.6 µM.
For `O=C(Nc1ccccc1)c1ccc2ccccc2n1`, the result in the data set on Streptococcus mutans [1] was inactive. Besides, the solubility in data set [2] (water, read-out: solubility) is 25 µg/mL (≈ 101 µM). Further, the IC50 in the data set with Streptococcus mutans [3] (setting [4]) is above 300 µM.
In the case of `NC(=O)c1cccc(NC(=O)c2ccc3ccccc3c2)c1`, the outcome in the data set on Streptococcus mutans [1] was inactive. The solubility in data set [2] (water, read-out: solubility) is below 5 µg/mL. Further, the IC50 in the data set on Streptococcus mutans [3] (setting [4]) came to 240 µM.
Regarding `COC(=O)c1ccccc1NC(=O)c1cnc2ccccc2c1`, in the data set on Streptococcus mutans [1], the outcome was inactive. Moreover, the solubility in data set [2] (water, read-out: solubility) is below 5 µg/mL. The IC50 in the data set with Streptococcus mutans [3] (setting [4]) amounted to 142 µM.
With `NC(=O)c1ccccc1NC(=O)c1ccc2ccccc2n1`, the result with Streptococcus mutans [1] was inactive. Also, in data set [2] (water, read-out: solubility), the solubility is 10 µg/mL (≈ 34.3 µM). Moreover, in the data set with Streptococcus mutans [3] (setting [4]), the IC50 turned out to be 165 µM.
`NC(=O)c1cccc(NC(=O)c2cc3cc([N+](=O)[O-])ccc3[nH]2)c1`: the result in the data set on Streptococcus mutans [1] was inactive. The solubility result in data set [2] (buffer) was “Insoluble”. In addition, the half-maximal inhibitory concentration (IC50) result in the data set with Streptococcus mutans [3] was “Nd(Insoluble)”.
`COC(=O)c1cccc(NC(=O)c2cccc3ccccc23)c1`: in the data set on Streptococcus mutans [1], the outcome was inactive. Moreover, the solubility in data set [2] (water, read-out: solubility) is below 5 µg/mL. The IC50 in the data set on Streptococcus mutans [3] (setting [4]) was above 300 µM.
Taken in the same sequence, the figures for `COC(=O)c1ccc(NC(=O)c2ccc3ccccc3c2)cc1` were “inactive”, 25 µg/mL (≈ 81.9 µM) and 112 µM.
`COC(=O)c1cccc(NC(=O)c2ccc3ccccc3c2)c1`: the outcome in the data set on Streptococcus mutans [1] was inactive. Further, the solubility in data set [2] (water, read-out: solubility) turned out to be 5 µg/mL (≈ 16.4 µM). In addition, the IC50 in the data set with Streptococcus mutans [3] (setting [4]) was above 300 µM.
Take `COC(=O)c1ccc(NC(=O)c2cc3cc(OC)ccc3[nH]2)cc1`: the outcome in the data set with Streptococcus mutans [1] was inactive. The solubility result in data set [2] (buffer) was “Insoluble”. For the same molecule, in the data set on Streptococcus mutans [3], the 50% inhibitory concentration (IC50) result was “Nd(Insoluble)”.
For `COC(=O)c1ccccc1NC(=O)c1cc2cc([N+](=O)[O-])ccc2o1`, the result in the data set on Streptococcus mutans [1] was inactive. For the same molecule, the solubility in data set [2] (water, read-out: solubility) is 25 µg/mL (≈ 73.5 µM). Moreover, the IC50 with Streptococcus mutans [3] (setting [4]) was determined as 71.4 µM.
